In patent US20230140290A1, “SALICYLAMIDE DERIVATIVES AND RELATED METHODS OF MAKING” (THE BOARD OF REGENTS OF THE UNIVERSITY OF TEXAS SY, priority 2020, published 2023):
Where “and” joins values, the source holds several entries; their conditions need not be identical. Equal values may be shown once.

Legend:
HAdV5-GFP [1] = test: Entry assay (HAdV5-mediated GFP expression); type: cell-based, HAdV-5; details: for inhibition at 50 µM: A549, 48 h, read-out: (%) Inhibition Entry Assay (50 μM)
Description: Entry Assay. The anti-HAdV activity was measured in an entry assay using human A549 epithelial cells (3×10^5 cells/well in coming black wall, clear bottom 96-well plates) infected with HAdV5-GFP (2000 vp/cell) in the presence 50 μM of the candidates and in a dose-response assay. A standard infection curve was generated in parallel by infecting cells in the absence of compounds using serial 2-fold dilutions of virus. All reactions were done in triplicate. Cells, virus, and drugs were incubated for 48 h at 37° C. and 5% CO2.

wild-type HAdV5 [2] = test: Nuclear-associated HAdV genomes (real-time PCR); type: cell-based, HAdV-5
Description: (§1) Nuclear-Associated HAdV Genomes. The nuclear delivery of HAdV genomes was assessed by real-time PCR following nuclear isolation from infected cells. […] Forty-five minutes after infection, A549 cells were trypsinized and collected and then washed twice with PBS. Then, cytoplasmic and nuclear fractions were separated using a hypotonic buffer solution and NP-40 detergent. The cell pellet was resuspended in 500 μL of 1×hypotonic buffer (20 mM Tris-HCl pH 7.4, 10 mM NaCl, 3 mM MgCl2) and incubated for 15 min at 4° C. Then, 25 μL of NP-40 was added and the samples were vortexed. The homogenates were centrifuged for 10 min at 835 g at 4° C. Following the removal of the cytoplasmic fraction (supernatant), HAdV DNA was isolated from the nuclear fraction (pellet) and from the cytoplasmic fraction using the QIAamp DNA Mini Kit (QIAGEN, Valencia, Calif.).
as §1, with “E.Z.N.A.® Tissue” for “QIAamp”, “DNA” for “DNA Mini”, “(Omega Bio-tek, Norcross, Ga.).” for “(QIAGEN, Valencia, Calif.).”

HAdV5-GFP [3] = test: Plaque assay (inhibition of HAdV plaque formation); type: cell-based, HAdV-5; details: for inhibition at 10 µM: read-out: Plaque Assay (%) Inhibition (10 μM); for IC50: read-out: Plaque Assay IC50 (μM), HAdV5-GFP, low MOI, 293β5 cell line; for Selectivity index (SI): ratio of CC50 to IC50 in plaque assay
Procedure, shortened: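 Compounds were present in the post-infection mixture at 10 μM, or at 10 to 0.3 μM for dose-response. Infection used low MOI HAdV5-GFP (0.06 vp/cell) on 80-90% confluent cells, 2 h rocking at 37° C, then a PBS wash.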

wild-type HAdV5 [4] = test: HAdV DNA quantification by real-time PCR (DNA replication); type: cell-based, HAdV-5; details: 24 h
Description: DNA Quantification by Real-Time PCR. […] Infected cells were incubated 24 h at 37° C. in 500 μL of complete DMEM containing 25 μM of either compounds or the same volume of DMSO (positive control). All samples were done in duplicate. After 24 h of incubation at 37° C., DNA was purified from the cell lysate with the QIAamp DNA Mini Kit (QIAGEN, Valencia, Calif.) following the manufacturer's instructions. TaqMan primers and probes for a common region of the HAdV5 were designed with the GenScript Real-Time PCR (TaqMan) Primer Design software (GenScript). […] Real-time PCR mixtures consisted of 9.5 μL of the purified DNA, AQ1 and AQ2 at a concentration of 200 nM each and Probe at a concentration of 50 nM in a total volume of 25 μL. The PCR cycling protocol was 95° C. for 3 min followed by 40 cycles of 95° C. for 10 s and 60° C. for 30 s. Human glyceraldehyde-3-phosphate dehydrogenase (GAPDH) gene was used as internal control. Oligonucleotides sequences for GAPDH and conditions were those previously reported by Henke-Gendo et al. (2012).
For quantification, gene fragments from hexon, and GAPDH were cloned into the pGEM-T Easy vector (Promega) and known concentrations of template were used to generate a standard curve in parallel for each experiment. All assays were performed in thermal cycler LightCycler® 96 System (Roche).
(§2) HAdV DNA Quantification by Real-Time PCR. […] All samples were done in duplicate. After 24 h of incubation at 37° C., DNA was purified from the cell lysate with the E.Z.N.A.® Tissue DNA Kit (Omega Bio-tek, Norcross, Ga.) following the manufacturer's instructions. TaqMan primers and probes for a common region of the HAdV5 were designed with the GenScript Real-Time PCR (TaqMan) Primer Design software (GenScript). […] Real-time PCR mixtures consisted of 9.5 μL of the purified DNA, AQ1 and AQ2 at a concentration of 200 nM each and Probe at a concentration of 50 nM in a total volume of 25 μL. The PCR cycling protocol was 95° C. for 3 min followed by 40 cycles of 95° C. for 10 s and 60° C. for 30 s. Human glyceraldehyde-3-phosphate dehydrogenase (GAPDH) gene was used as internal control. Oligonucleotides sequences for GAPDH and conditions were those previously reported by Henke-Gendo et al. (2012).
as §2, with “DNA” for “HAdV DNA”

A549 cells = test: Cytotoxicity assay (AlamarBlue); details: read-out: CC50 (μM), cytotoxic concentration 50%; A549 cell line, 48 h
Description: (§3) Cytotoxicity Assay. The cytotoxicity of the compounds was analyzed by commercial kit AlamarBlue® (Invitrogen, Ref. DAL1025). A549 cells at a density of 5×10^3 cells per well in 96-well plates were seeded. […] Cells were then incubated at 37° C. for 48 h following the kit protocol. The cytotoxic concentration 50 (CC50) value was obtained using the statistical package GraphPad Prism. This assay was performed in duplicate.

[5] = Cytotoxicity assay (AlamarBlue); details: human, A549 cells
Description: as §3

[6] = FIG. 3, 45 min post infection, concentrations by CC50 (2-50 μM)
[7] = A549, read-out: IC50 Entry Assay (μM), HAdV5-GFP, high MOI, A549 cell line
[8] = FIG. 5A, 45 min post-infection, 10-fold plaque IC50

O=C(Nc1ccc([N+](=O)[O-])cc1)c1cc(Cl)ccc1O [Compound 13, 5-Chloro-2-hydroxy-N-(4-nitrophenyl)benzamide]
inhibition at 50 µM (HAdV5-GFP [1]): 100%
amount of nuclear-associated HAdV genomes versus DMSO (wild-type HAdV5 [2]; [6]): significant (p≤0.0001) reductions
inhibition at 10 µM (HAdV5-GFP [3]): 98 ± 2.8%
IC50 (HAdV5-GFP [3]): 0.11 µM

O=C(Nc1cc(F)cc(C(F)(F)F)c1)c1ccc(Cl)cc1O [Compound 20, 4-Chloro-N-(3-fluoro-5-(trifluoromethyl)phenyl)-2-hydroxybenzamide]
inhibition of HAdV-5 DNA replication (qPCR) (wild-type HAdV5 [4]; FIG. 4, concentrations by CC50 (2-50 μM)): low inhibition
CC50 (A549 cells): 20.6 µM
inhibition at 50 µM (HAdV5-GFP [1]): 100%
IC50 (HAdV5-GFP [1]; [7]): 0.26 ± 0.09 µM
amount of nuclear-associated HAdV genomes versus DMSO (wild-type HAdV5 [2]; [6]): partially inhibited
Selectivity index (SI) (HAdV5-GFP [3]): 186.8
inhibition at 10 µM (HAdV5-GFP [3]): 96.8 ± 1.9%
IC50 (HAdV5-GFP [3]): 0.11 µM

C[C@@H](NC(=O)c1cc(Cl)ccc1O)c1ccc(F)cc1 [Compound 49, (R)-5-Chloro-N-(1-(4-fluorophenyl)ethyl)-2-hydroxybenzamide]
CC50 at 48 h [5]: > 200 µM
Selectivity index (SI) (HAdV5-GFP [3]): 57.8 and 66.2
inhibition at 10 µM (HAdV5-GFP [3]): 100%
IC50 (HAdV5-GFP [3]): 3.02 µM

CC(C)(NC(=O)c1cc(Cl)ccc1O)c1ccc(F)cc1 [Compound 51, 5-Chloro-N-(2-(4-fluorophenyl)propan-2-yl)-2-hydroxybenzamide]
CC50 at 48 h [5]: > 200 µM
Selectivity index (SI) (HAdV5-GFP [3]): 39.1 and 57.8
inhibition at 10 µM (HAdV5-GFP [3]): 100%
IC50 (HAdV5-GFP [3]): 3.46 µM

CC[C@@H](C)[C@H](NC(=O)c1cc(Cl)ccc1O)C(=O)Nc1ccc([N+](=O)[O-])cc1Cl [Compound 62, 5-Chloro-N-((2S,3R)-1-((2-chloro-4-nitrophenyl)amino)-3-methyl-1-oxopentan-2-yl)-2-hydroxybenzamide]
CC50 (A549 cells): 20.2 µM
inhibition at 50 µM (HAdV5-GFP [1]): 98.2 ± 0.5%
IC50 (HAdV5-GFP [1]; [7]): 2.5 ± 0.22 µM
amount of nuclear-associated HAdV genomes versus DMSO (wild-type HAdV5 [2]; [6]): significant (p≤0.0001) reductions
Selectivity index (SI) (HAdV5-GFP [3]): 127.6
inhibition at 10 µM (HAdV5-GFP [3]): 99 ± 0.3%
IC50 (HAdV5-GFP [3]): 0.16 µM

CC(C)[C@H](NC(=O)c1cc(Cl)ccc1NS(C)(=O)=O)C(=O)Nc1ccc([N+](=O)[O-])cc1Cl [Compound 70, (S)-5-Chloro-N-(1-((2-chloro-4-nitrophenyl)amino)-3-methyl-1-oxobutan-2-yl)-2-(methylsulfonamido)benzamide]
CC50 (A549 cells): 174 µM
inhibition at 50 µM (HAdV5-GFP [1]): 99.1 ± 1.2%
IC50 (HAdV5-GFP [1]; [7]): 1.38 ± 0.1 µM
amount of nuclear-associated HAdV genomes versus DMSO (wild-type HAdV5 [2]; [6]): significant (p≤0.0001) reductions
Selectivity index (SI) (HAdV5-GFP [3]): 256.0
inhibition at 10 µM (HAdV5-GFP [3]): 99.1 ± 1.2%
IC50 (HAdV5-GFP [3]): 0.68 µM

O=C(Nc1ccc(NCc2ccc(O)cc2)cc1Cl)c1cc(Cl)ccc1O [Compound 101, 5-Chloro-N-(2-chloro-4-((4-hydroxybenzyl)amino)phenyl)-2-hydroxybenzamide]
inhibition of HAdV-5 DNA replication (qPCR) (wild-type HAdV5 [4]; FIG. 6A, 10-fold plaque IC50): low inhibition
CC50 (A549 cells): 116 µM
inhibition at 50 µM (HAdV5-GFP [1]): 83.3%
IC50 (HAdV5-GFP [1]; [7]): 15.2 to 30.8 µM
IC50 (HAdV5-GFP [1]; {}): 25 ± 6.9 µM
amount of nuclear-associated HAdV genomes versus DMSO (wild-type HAdV5 [2]; [8]): significant reductions
Selectivity index (SI) (HAdV5-GFP [3]): 104.1
inhibition at 10 µM (HAdV5-GFP [3]): 80.7 ± 9.1%
IC50 (HAdV5-GFP [3]): 1.11 µM

O=C(Nc1ccc(NCc2ccc(O)nc2)cc1Cl)c1cc(Cl)ccc1O [Compound 112, 5-Chloro-N-(2-chloro-4-(((6-hydroxypyridin-3-yl)methyl)amino)phenyl)-2-hydroxybenzamide]
inhibition of HAdV-5 DNA replication (qPCR) (wild-type HAdV5 [4]; FIG. 6A, 10-fold plaque IC50): low inhibition
CC50 (A549 cells): 98.5 µM
inhibition at 50 µM (HAdV5-GFP [1]): 51.7 ± 9.8%
IC50 (HAdV5-GFP [1]; [7]): > 50 µM
amount of nuclear-associated HAdV genomes versus DMSO (wild-type HAdV5 [2]; [8]): significant reductions
Selectivity index (SI) (HAdV5-GFP [3]): 126.3
inhibition at 10 µM (HAdV5-GFP [3]): 100%
IC50 (HAdV5-GFP [3]): 0.78 µM

CC(C)(Cc1ccccc1)ON(c1ccc(NC(=O)c2cc(Cl)ccc2O)c(Cl)c1)C(C)(C)Cc1ccccc1 [Compound 115, 5-Chloro-N-(2-chloro-4-((2-methyl-1-phenylpropan-2-yl)((2-methyl-1-phenylpropan-2-yl)oxy)amino)phenyl)-2-hydroxybenzamide]
CC50 (A549 cells): 165 µM
inhibition at 50 µM (HAdV5-GFP [1]): 59.1%
IC50 (HAdV5-GFP [1]; [7]): 34.1 µM
amount of nuclear-associated HAdV genomes versus DMSO (wild-type HAdV5 [2]; [8]): no significant differences
Selectivity index (SI) (HAdV5-GFP [3]): 129.7
inhibition at 10 µM (HAdV5-GFP [3]): 100%
IC50 (HAdV5-GFP [3]): 1.27 µM

CC(C)(CCO)Nc1ccc(NC(=O)c2cc(Cl)ccc2O)c(Cl)c1 [Compound 118, 5-Chloro-N-(2-chloro-4-((4-hydroxy-2-methylbutan-2-yl)amino)phenyl)-2-hydroxybenzamide]
inhibition of HAdV-5 DNA replication (qPCR) (wild-type HAdV5 [4]; FIG. 6A, 10-fold plaque IC50): low inhibition
CC50 (A549 cells): 170 ± 4.2 µM
inhibition at 50 µM (HAdV5-GFP [1]): 42.1 ± 3%
IC50 (HAdV5-GFP [1]; [7]): > 50 µM
amount of nuclear-associated HAdV genomes versus DMSO (wild-type HAdV5 [2]; [8]): no significant differences
Selectivity index (SI) (HAdV5-GFP [3]): 188.3
inhibition at 10 µM (HAdV5-GFP [3]): 92.3%
IC50 (HAdV5-GFP [3]): 0.9 µM

CC(CCO)Nc1ccc(NC(=O)c2cc(Cl)ccc2O)c(Cl)c1 (stereo not shown) [Compound 119, 5-Chloro-N-(2-chloro-4-((4-hydroxybutan-2-yl)amino)phenyl)-2-hydroxybenzamide]
inhibition of HAdV-5 DNA replication (qPCR) (wild-type HAdV5 [4]; FIG. 6A, 10-fold plaque IC50): low inhibition
CC50 (A549 cells): 200 µM
inhibition at 50 µM (HAdV5-GFP [1]): 88.6%
amount of nuclear-associated HAdV genomes versus DMSO (wild-type HAdV5 [2]; [8]): no significant differences
Selectivity index (SI) (HAdV5-GFP [3]): 166.7
inhibition at 10 µM (HAdV5-GFP [3]): 96.9 ± 2.4%
IC50 (HAdV5-GFP [3]): 1.2 µM
